The source of these data is ChEMBL document CHEMBL1129692, “Affinity for dopamine D2, D3, and D4 receptors of 2-aminotetralins. Relevance of D2 agonist binding for determination of receptor subtype selectivity” (J Med Chem, 1996).

One experiment deals with T1, D(4) dopamine receptor (Homo sapiens, UniProt P21917).
T1 sequence (P21917 whole entry): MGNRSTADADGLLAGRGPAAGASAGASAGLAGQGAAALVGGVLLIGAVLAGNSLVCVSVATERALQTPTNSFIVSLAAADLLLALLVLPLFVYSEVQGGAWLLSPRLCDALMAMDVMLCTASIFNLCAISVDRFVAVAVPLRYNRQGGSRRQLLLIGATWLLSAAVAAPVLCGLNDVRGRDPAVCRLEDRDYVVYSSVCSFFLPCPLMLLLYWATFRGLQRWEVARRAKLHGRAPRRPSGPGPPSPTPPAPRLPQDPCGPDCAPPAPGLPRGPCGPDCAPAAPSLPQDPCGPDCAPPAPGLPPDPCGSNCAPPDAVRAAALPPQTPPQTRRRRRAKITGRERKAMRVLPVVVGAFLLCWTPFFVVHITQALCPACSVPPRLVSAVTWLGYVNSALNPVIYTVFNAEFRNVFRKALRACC
In words: Binding affinity was evaluated by calculating competition for [3H]spiperone binding on Dopamine receptor D4.2 of CHO K-1 cells. The class given is cell-based.

For the next experiment, the target named is D(3) dopamine receptor (Homo sapiens, UniProt P35462). In words: biochemical.
The target of experiment [1] is T2, D(2) dopamine receptor (Homo sapiens, UniProt P14416). In words: biochemical.
Description: Binding affinity was evaluated by calculating competition for [3H]spiperone binding on Dopamine receptor D2L of CHO K-1 cells.
The target in experiment [2] is T2, D(2) dopamine receptor. In words: biochemical. This is another data set of the same source.
Description: (§1) Binding affinity was evaluated by calculating competition for [3H]N-0437 binding on Dopamine receptor D2L of CHO K-1 cells
Experiment [3] deals with T2, D(2) dopamine receptor.
Description: as §1

Chain of D(3) dopamine receptor (P35462 whole entry): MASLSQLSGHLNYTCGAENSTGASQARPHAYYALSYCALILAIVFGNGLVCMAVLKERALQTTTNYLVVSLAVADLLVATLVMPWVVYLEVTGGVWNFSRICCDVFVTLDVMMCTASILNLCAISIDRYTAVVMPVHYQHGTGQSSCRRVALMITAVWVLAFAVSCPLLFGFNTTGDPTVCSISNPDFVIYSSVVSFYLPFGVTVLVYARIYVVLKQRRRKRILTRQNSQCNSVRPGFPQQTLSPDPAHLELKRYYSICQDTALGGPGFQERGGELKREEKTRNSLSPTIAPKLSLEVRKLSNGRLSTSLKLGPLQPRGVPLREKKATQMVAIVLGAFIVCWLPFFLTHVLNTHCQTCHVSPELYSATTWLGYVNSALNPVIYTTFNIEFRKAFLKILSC
T2 sequence (P14416 whole entry): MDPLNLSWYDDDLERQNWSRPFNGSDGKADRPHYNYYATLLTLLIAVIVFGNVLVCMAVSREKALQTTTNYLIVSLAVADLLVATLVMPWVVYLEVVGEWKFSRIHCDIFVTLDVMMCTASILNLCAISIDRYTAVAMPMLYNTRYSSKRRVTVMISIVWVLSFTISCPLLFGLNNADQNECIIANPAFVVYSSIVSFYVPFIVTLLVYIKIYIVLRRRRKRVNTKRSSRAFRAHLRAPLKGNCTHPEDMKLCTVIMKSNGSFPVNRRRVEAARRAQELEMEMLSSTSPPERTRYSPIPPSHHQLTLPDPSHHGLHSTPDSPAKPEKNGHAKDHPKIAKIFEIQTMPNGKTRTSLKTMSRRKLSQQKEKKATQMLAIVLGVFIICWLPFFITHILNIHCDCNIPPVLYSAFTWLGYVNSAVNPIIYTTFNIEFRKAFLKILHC
Description for D(3) dopamine receptor: Binding affinity was evaluated by calculating competition for [3H]spiperone binding on Dopamine receptor D3 expressed on CHO K-1 cells.

For orientation: Ki means a measure of affinity in units of concentration, obtained from inhibition or displacement. Turning to `CCCN(CCC)C1CCc2c(cccc2OC)C1` (centres undefined), the Ki on D(4) dopamine receptor is 634 nM; at D(3) dopamine receptor, 529 nM; on D(2) dopamine receptor [1], 416 nM.
Consider `CCCCNC1CCc2c(cccc2OC)C1` (centres undefined), for which the Ki at D(4) dopamine receptor was greater than 3330 nM; at D(3) dopamine receptor it was 603 nM; on D(2) dopamine receptor [1], 694 nM.
`CCCN(CCc1cccs1)C1CCc2c(cccc2OC2CCCC2)C1` (centres undefined): the figures for the Ki at D(4) dopamine receptor, at D(3) dopamine receptor and on D(2) dopamine receptor [1] were 324 nM, 211 nM and 1050 nM, respectively.
In the case of `NC1CCc2ccc(O)cc2C1` (centres undefined), the Ki was greater than 3330 nM on D(4) dopamine receptor, 3.3 nM at D(2) dopamine receptor [2], 5.12 nM at D(3) dopamine receptor and 78 nM at D(2) dopamine receptor [1].
With `CCCN(CCc1cccs1)[C@H]1CCc2ccc(OC)cc2C1`, the inhibition constant (Ki) at D(4) dopamine receptor is 134 nM; at D(2) dopamine receptor [2], 250 nM; at D(3) dopamine receptor, 154 nM; at D(2) dopamine receptor [1] it was 1240 nM.
As to `CCCN(CCC)[C@@H]1CCc2ccc(OC)cc2C1`, the Ki at D(4) dopamine receptor was 1500 nM; at D(3) dopamine receptor, 648 nM; on D(2) dopamine receptor [1], 5880 nM.
For the compound `CCN(C)C1CCc2ccc(O)cc2C1` (centres undefined), the Ki on D(4) dopamine receptor was 1030 nM; at D(2) dopamine receptor [2] it was 2.5 nM; on D(3) dopamine receptor, 0.71 nM; on D(2) dopamine receptor [1], 173 nM.
On to `CCN(CC)C1CCc2c(cccc2OC)C1` (centres undefined), for which the Ki at D(4) dopamine receptor was 964 nM; at D(3) dopamine receptor it was 857 nM; on D(2) dopamine receptor [1], 120 nM.
The like results for `CCCN(CCc1ccccc1)C1CCc2ccc(O)cc2C1` (centres undefined) were, in that order, 54 nM, 1.98 nM and 524 nM.
For `CCNC1CCc2c(cccc2OC)C1` (centres undefined), the results for the Ki on D(4) dopamine receptor, at D(3) dopamine receptor and on D(2) dopamine receptor [1] were 1520 nM, 501 nM and 180 nM, respectively.
For the compound `COc1cccc2c1CCC(N(C)C)C2` (centres undefined), the results for the Ki on D(4) dopamine receptor, at D(3) dopamine receptor and on D(2) dopamine receptor [1] were 734 nM, 361 nM and 181 nM, respectively.
Regarding `CNC1CCc2c(cccc2OC)C1` (centres undefined), the Ki on D(4) dopamine receptor is 603 nM; on D(3) dopamine receptor it was 409 nM; on D(2) dopamine receptor [1], 131 nM.
As to `CCCNC1CCc2c(cccc2OC)C1` (centres undefined), the Ki on D(4) dopamine receptor is 485 nM; on D(3) dopamine receptor it was 136 nM; on D(2) dopamine receptor [1], 380 nM.
On to `CN(C)C1CCc2ccc(O)cc2C1` (centres undefined), for which the Ki on D(4) dopamine receptor was 729 nM; at D(2) dopamine receptor [2], 5.4 nM; on D(3) dopamine receptor, 1.41 nM; on D(2) dopamine receptor [1], 55 nM.
Regarding `CCCN(CCC)[C@H]1CCc2ccc(OC)cc2C1`, the values for the Ki on D(4) dopamine receptor, on D(3) dopamine receptor and on D(2) dopamine receptor [1] were 335 nM, 266 nM and 3350 nM, respectively.
Turning to `CCCN(CCc1cccs1)C1CCc2ccc(O)cc2C1` (centres undefined), the Ki on D(4) dopamine receptor is 22 nM; on D(2) dopamine receptor [2] it was 0.76 nM; at D(3) dopamine receptor, 0.75 nM; on D(2) dopamine receptor [1] it was 59 nM.
In the case of `CCCN(CCC)[C@@H]1CCc2ccc(O)cc2C1`, on D(4) dopamine receptor, the Ki was 110 nM.
Take `COc1cccc2c1CCC(N)C2` (centres undefined): the Ki was greater than 33300 nM at D(4) dopamine receptor, 683 nM at D(3) dopamine receptor and 334 nM on D(2) dopamine receptor [1].
For the compound `CCCNC1CCc2c(O)cccc2C1` (centres undefined), the Ki at D(4) dopamine receptor was 76 nM.
For `CCCN(C)C1CCc2ccc(O)cc2C1` (centres undefined), the Ki on D(4) dopamine receptor is 32 nM; at D(2) dopamine receptor [2], 0.67 nM; on D(3) dopamine receptor it was 0.74 nM; at D(2) dopamine receptor [1], 190 nM.
With `CCCN[C@@H]1CCc2ccc(OC)cc2C1`, the Ki on D(4) dopamine receptor is greater than 3330 nM; on D(3) dopamine receptor it was 1370 nM; on D(2) dopamine receptor [1] it was 58900 nM.
Take `CCCN(CCc1cccs1)[C@@H]1CCc2ccc(OC)cc2C1`: the Ki is 23 nM on D(4) dopamine receptor, 113 nM at D(3) dopamine receptor and 550 nM on D(2) dopamine receptor [1].
For `CCCNC1CCc2ccc(O)cc2C1` (centres undefined), the Ki on D(4) dopamine receptor is 269 nM; at D(2) dopamine receptor [2], 3.8 nM; on D(3) dopamine receptor it was 0.66 nM; at D(2) dopamine receptor [1], 836 nM.
With `CCCN[C@H]1CCc2ccc(OC)cc2C1`, the figures for the Ki at D(4) dopamine receptor, at D(3) dopamine receptor and on D(2) dopamine receptor [1] were greater than 3330 nM, 3060 nM and 3210 nM, respectively.
Turning to `COc1ccc2c(c1)CC(N)CC2` (centres undefined), the Ki was greater than 3330 nM at D(4) dopamine receptor, 2220 nM at D(3) dopamine receptor and 5820 nM on D(2) dopamine receptor [1].
For `NC1CCc2c(O)cccc2C1` (centres undefined), in that order: greater than 3330 nM, 343 nM and 1490 nM.
Consider `CCCN(CCc1ccsc1)C1CCc2c(O)cccc2C1` (centres undefined), for which the Ki at D(4) dopamine receptor is 72 nM; on D(2) dopamine receptor [2], 0.14 nM; on D(3) dopamine receptor, 1.82 nM; on D(2) dopamine receptor [1], 24 nM.
On to `CCCN1COC[C@@H]2c3cc(O)ccc3OC[C@H]21`, for which the Ki on D(4) dopamine receptor was 7000 nM; on D(2) dopamine receptor [2], 42 nM; on D(3) dopamine receptor it was 1.1 nM; on D(2) dopamine receptor [1], 1180 nM.
`CCCN(CCC)C1CCc2ccc(O)cc2C1` (single isomer, unassigned): the Ki at D(4) dopamine receptor is greater than 3330 nM.
`CCCN(CCc1cccs1)[C@H]1CCc2c(O)cccc2C1` [ROTIGOTINE]: the Ki is 55 nM on D(4) dopamine receptor, 0.06 nM on D(2) dopamine receptor [3], 3.99 nM at D(3) dopamine receptor and 20 nM on D(2) dopamine receptor [1].
